The results in this text go back to patent publication US20260232827A1, “ANTIBODY-DRUG CONJUGATES TARGETING NAPI2B AND METHODS OF USE” (Zymeworks BC Inc., priority 2023, published 2026).

What all share (test): Binding region mapping, flow cytometry on transfected HEK293-6e cells
What all share (conditions): 24 hours at 4° C.

Experiment [1] deals with Construct 5 (chimeric human NaPi2b, region 304-348). On the procedure:
Following incubation and washing, fluorescence was detected by flow cytometry on a BD LSRFortessa™ Cell Analyzer (BD Biosciences, Franklin Lake, NJ) with 1,000 minimum events collected per well.

The subject of experiment [2] is Construct 3 (chimeric human NaPi2b, region 304-321). The source says: (§1) NaPi2b constructs containing deletions in the main extracellular loop of human NaPi2b, as well as chimeric NaPi2b/NaPi2c constructs concerning this main loop, were generated.
(§2) As a complementary strategy, two additional constructs were designed in which the relevant region of the main loop was deleted such as to mimic NaPi2c/NaPi2a main extracellular loop (Constructs 6-7 in Table 52.1). Clones were generated at GenScript Biotech (Piscataway, NJ).
(§3) Constructs were expressed in HEK293-6e cells as follows. Cells were maintained under standard culture conditions (37° C./5% CO2) with shaking at 110 rpm for suspension and cultured in FreeStyle™ 293 Expression Medium (Thermo Fisher Scientific, Waltham, MA) supplemented with 1% fetal bovine serum (Thermo Fisher Scientific, Waltham, MA) and 1× Penicillin-Streptomycin (Thermo Fisher Scientific, Waltham, MA). Cells were transfected with clones expressing the constructs listed in Table 52.1, at 1 μg of DNA per 1 million cells, using 293Fectin™ Transfection Reagent (Thermo Fisher Scientific, Waltham, MA) and Opti-MEM™ I Reduced Serum Medium (Thermo Fisher Scientific, Waltham, MA), and incubated for 24 hours under standard culture conditions (37° C./5% CO2/110 rpm). Following transfection, cells were seeded at 50,000 cells/well in conical-bottom 96-well plates and treated with a serial dilution of test antibody for 24 hours at 4° C. to prevent internalization. Cells were treated with final concentrations of all humanized antibodies of 200, 20, or 2 nM. Cells were treated with final concentrations of the reference anti-NaPi2a rabbit antibody of 50, 5, or 0.5 nM. […] Following incubation and washing, fluorescence was detected by flow cytometry on a BD LSRFortessa™ Cell Analyzer (BD Biosciences, Franklin Lake, NJ) with 1,000 minimum events collected per well. […] Background-subtracted AF647 Mean Fluorescence Intensity (MFI) values were calculated by subtracting the average MFI of three technical replicates of unstained (no primary antibody) cells.

Experiment [3] has as its target T1, Construct 7 (human NaPi2b deletion, region 317-326) (Homo sapiens, UniProt O95436, DEL317-326).
T1 construct: host or cells: HEK293-6e
T1 sequence (O95436 with tags, fused parts or gaps DEL317-326): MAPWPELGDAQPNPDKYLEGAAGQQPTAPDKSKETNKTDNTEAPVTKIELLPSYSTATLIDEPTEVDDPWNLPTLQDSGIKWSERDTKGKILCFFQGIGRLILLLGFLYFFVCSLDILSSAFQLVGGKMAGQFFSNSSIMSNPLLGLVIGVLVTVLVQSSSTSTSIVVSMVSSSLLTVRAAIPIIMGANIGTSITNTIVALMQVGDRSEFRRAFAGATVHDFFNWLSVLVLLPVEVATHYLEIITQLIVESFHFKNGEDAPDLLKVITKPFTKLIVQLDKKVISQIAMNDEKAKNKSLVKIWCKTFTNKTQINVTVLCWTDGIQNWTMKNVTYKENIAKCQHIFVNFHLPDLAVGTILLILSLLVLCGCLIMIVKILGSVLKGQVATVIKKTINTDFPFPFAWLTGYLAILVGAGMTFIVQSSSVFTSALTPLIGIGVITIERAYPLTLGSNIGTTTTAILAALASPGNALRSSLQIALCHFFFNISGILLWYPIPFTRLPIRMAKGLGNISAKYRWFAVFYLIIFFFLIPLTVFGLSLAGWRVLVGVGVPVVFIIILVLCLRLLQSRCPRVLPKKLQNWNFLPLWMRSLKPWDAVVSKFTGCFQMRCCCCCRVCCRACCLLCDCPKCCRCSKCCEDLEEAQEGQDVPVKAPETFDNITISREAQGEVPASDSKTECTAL
From the text: as §1, §2, §3

Experiment [4] deals with Construct 1 (chimeric human NaPi2b, region 239-259).
From the text: as §1, §2, §3

For experiment [5], the system named is Construct 4 (chimeric human NaPi2b, region 341-358).
From the text: as §1, §2, §3

In experiment [6] the test system is Construct 2 (chimeric human NaPi2b, region 280-301).
From the text: as §1, §2, §3

Experiment [7] deals with T2, Construct 6 (human NaPi2b deletion, region 317-333) (Homo sapiens, UniProt O95436, DEL317-333).
T2 construct: host or cells: HEK293-6e
T2 sequence (O95436 with tags, fused parts or gaps DEL317-333): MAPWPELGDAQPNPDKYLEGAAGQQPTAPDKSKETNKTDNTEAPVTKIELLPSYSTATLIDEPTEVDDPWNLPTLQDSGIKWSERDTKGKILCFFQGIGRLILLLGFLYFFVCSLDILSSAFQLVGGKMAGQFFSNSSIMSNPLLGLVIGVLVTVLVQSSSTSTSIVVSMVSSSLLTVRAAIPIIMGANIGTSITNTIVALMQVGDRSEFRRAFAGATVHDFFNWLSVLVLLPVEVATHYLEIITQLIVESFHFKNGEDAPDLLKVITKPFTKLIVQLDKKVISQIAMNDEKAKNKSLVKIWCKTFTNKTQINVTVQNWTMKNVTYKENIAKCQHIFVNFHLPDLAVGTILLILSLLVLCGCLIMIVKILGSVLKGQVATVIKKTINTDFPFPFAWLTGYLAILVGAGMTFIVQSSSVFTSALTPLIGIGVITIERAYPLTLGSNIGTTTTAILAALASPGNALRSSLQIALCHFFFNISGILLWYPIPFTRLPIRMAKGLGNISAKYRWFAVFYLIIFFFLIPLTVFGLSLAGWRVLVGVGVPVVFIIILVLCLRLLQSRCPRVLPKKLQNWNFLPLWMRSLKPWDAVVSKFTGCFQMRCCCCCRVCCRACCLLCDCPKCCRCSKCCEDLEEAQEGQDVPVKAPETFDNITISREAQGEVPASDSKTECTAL
From the text: as §1, §2, §3

In the case of palivizumab [palivizumab (v21995)], the “Background-Subtracted AF647 Mean Fluorescence Intensity” value is -2 in experiment [1] (antibody 2.0 nM); 123 in experiment [1] (antibody 20.0 nM); 40 in experiment [1] (antibody 200.0 nM); 19 in experiment [2] (antibody 2.0 nM); 39 in experiment [2] (antibody 20.0 nM); -5 in experiment [2] (antibody 200.0 nM). In addition, the “Background-Subtracted AF647 Mean Fluorescence Intensity” value in experiment [3] (antibody 2.0 nM) was -34; in experiment [3] (antibody 20.0 nM) it was -85; in experiment [3] (antibody 200.0 nM), -97; in experiment [4] (antibody 2.0 nM), -30; in experiment [4] (antibody 20.0 nM), -27; in experiment [4] (antibody 200.0 nM), 12. The “Background-Subtracted AF647 Mean Fluorescence Intensity” value in experiment [5] (antibody 2.0 nM) was 1; in experiment [5] (antibody 20.0 nM), 22; in experiment [5] (antibody 200.0 nM), 12; in experiment [6] (antibody 2.0 nM), -69; in experiment [6] (antibody 20.0 nM) it was -64; in experiment [6] (antibody 200.0 nM) it was -30. Besides, the “Background-Subtracted AF647 Mean Fluorescence Intensity” value in experiment [7] (antibody 2.0 nM) was 11; in experiment [7] (antibody 20.0 nM) it was 1; in experiment [7] (antibody 200.0 nM), 2.
